Experimental data: the NIST ThermoML archive (doi:10.1016/j.jct.2006.03.013)
± gives the expanded uncertainty stated by the source.

Settings: 182.33 K; Liquid; Closed cell (Static) method
With `CCCC` [butane] the “vapor or sublimation pressure” value was 0.419 ± 0.011 kPa. In the case of `CC` [ethane], the “vapor or sublimation pressure” value is reported as 88.97 ± 0.39 kPa. For `CCC` [propane], the “vapor or sublimation pressure” value was 6.02 ± 0.044 kPa.
